According to patent publication US20040242459A1 (priority 2001, published 2004):
Marks after values point to notes of the source that are not given here.

How the values were obtained:
[1] = system: adjuvant-induced arthritis in female Lewis rats; details: for Secondary Foot Volume % Inhibition Compared to Vehicle Day 21-0 / Change in Secondary Foot Volume Day 21-0 / Change in Secondary Foot Volume Day 14-0 / Secondary Foot Volume % Inhibition Compared to Vehicle Day 14-0: contralateral paw; for Change in Secondary Foot Volume Day 21-0: mean, SD wrapped to next line; for Change in Secondary Foot Volume Day 14-0 / Change in Primary Foot Volume Day 4-0 / change in body weight Day 21-0 / change in body weight Day 14-0: p.o. q.d.; for Change in Secondary Foot Volume Day 14-0 / Change in Primary Foot Volume Day 4-0 / change in body weight Day 14-0: Compounds 1, 2, 4, 6 30 mg/kg/day; for Change in Secondary Foot Volume Day 14-0 / Change in Primary Foot Volume Day 4-0: Compound 3 50, Compound 5 100, indomethacin 2; for Change in Secondary Foot Volume Day 14-0 / Change in Primary Foot Volume Day 21-0 / Change in Primary Foot Volume Day 4-0 / Change in Primary Foot Volume Day 14-0 / radiographic total scores on day 21, Primary (injected) paw / radiographic total scores on day 21, Secondary (contralateral) Paw / change in body weight Day 21-0 / change in body weight Day 14-0 / Spleen / Thymus (mg) / Thymus: mean ± SD; for Secondary Foot Volume % Inhibition Compared to Vehicle Day 14-0 / Primary Foot Volume % Inhibition Compared to Vehicle Day 4-0 / Primary Foot Volume % Inhibition Compared to Vehicle Day 14-0 / Change in Primary Foot Volume Day 14-0: same doses p.o. q.d.; for radiographic total scores on day 21, Primary (injected) paw / radiographic total scores on day 21, Secondary (contralateral) Paw: maximum score per foot 26; for change in body weight Day 21-0: indomethacin 2 mg/kg/day; for change in body weight Day 14-0: Compound 3 50, Compound 5 100, indomethacin 2 mg/kg/day; for body weight gain compared with vehicle-treated animals: prophylactic, Compound 1 30 mg/kg q.d.; for Spleen / Thymus (mg) / Thymus: weight at necropsy, day of euthanasia 21 (Compound 1, indomethacin) or 15 (Compounds 2-6); for prevention of swelling of primary or secondary paws: up to day 14, rats then euthanized
Procedure: Nine groups of 10 rats each were injected with an emulsion containing 0.5 mg of Mycobacterium butyricum in 0.1 ml of light mineral oil, and a negative control group of 10 rats was not injected with adjuvant. Body weights, primary (injected) and contralateral (non-injected) paw volumes (determined by mercury displacement plethysmography) and lateral radiographs (obtained under Ketamine and Xylazine anesthesia) were determined before (day-1) and at various time points including 21 days following adjuvant injection. The rats were anesthetized with an intramuscular injection of 0.03-0.1 ml of a combination of Ketamine (87 mg/kg) and Xylazine (13 mg/kg) for radiographs and injection of adjuvant. Lateral to medial radiographs were made of both hind paws on days 0 and 21 for using the Faxitron (45 kVp, 30 seconds or 45 kVp, 1 second) and Kodak X-OMAT TL film, and were developed in an automatic processor. […] Specific criteria were used to establish the numerical grade of severity for each radiographic change. The maximum possible score per foot was 26. Compounds or vehicle were administered prophylactically beginning post injection of adjuvant and continuing for 21 days. The Compounds were prepared weekly, refrigerated in the dark until used, and vortex mixed immediately prior to administration. […] The liver, thymus and spleens of all rats were removed and weighed and both hind paws were removed and radiographed.
Two-factor (‘treatment’ and ‘time’) analysis of variance with repeated measures on ‘time’ were applied to the percent changes for body weight and foot volumes and to the rank-transformed radiographic total scores. A post hoc Dunnett's test was conducted to compare the effect of treatments to vehicle. A one-way analysis of variance was applied to the thymic and spleen weights followed by the Dunnett's test to compare the effect of treatments to vehicle.
Compounds or vehicle (0.5% Methocel in sterile water) were administered by oral gavage once daily for 21 days following induction of arthritis in female Lewis rats via the sub plantar injection of 0.1 ml of light mineral oil containing 0.5 mg of Mycobacterium butyricum. Control animals were not injected with adjuvant. Body weights were measured 1 day prior to (i.e. day 0) and at 14 and 21 days post induction of arthritis. The data in Table 1 represent the mean increase or decrease in body weight ±1 standard deviation for groups of 9 to 10 animals.
Compounds or vehicle (0.5% Methocel in sterile water) were administered by oral gavage once daily for 21 days following induction of arthritis in female Lewis rats via the sub plantar injection of 0.1 ml of light mineral oil containing 0.5 mg of Mycobacterium butyricum. Control animals were not injected with adjuvant.
(§1) Injected foot volumes were measured by mercury displacement plethysmography prior to induction of arthritis, and on days 4, 14 and 21 post induction of arthritis. The data represent the mean increase in foot volume ±1 standard deviation for groups of 9 to 10 animals. The extent of paw swelling in compound-treated animals was compared to the mean of that in the vehicle-treated group, and percentage inhibition was calculated for each dose level of compound.
as §1, with “Contralateral foot” for “Injected foot”, “prior to,” for “prior to induction of arthritis,”, “and at” for “and on”, “days” for “days 4,”
[…] Data represent the mean weights of organs in mg ±1 standard deviation for groups of 9 to 10 animals.
Total radiographic scores were derived from examination of lateral radiographs obtained prior to, and on day 21 post induction of arthritis.

[2] = system: PPAR-α, PPAR-γ and PPAR-δ; assay: Classification of ligands according to their PPAR activity (Table A); set-up: species or system human; details: classification based on IC50 and EC50 data of Table B
[3] = biological target: T1, recombinant human PPARδ (GST-PPARδ) (Homo sapiens, UniProt Q03181); assay: Scintillation Proximity Assay, displacement of [3H2]Compound B from PPARδ; type: binding; details: SPA, radioligand
T1 construct: The full length human cDNAs for PPARδ and PPARα were subcloned into the pGEX-KT expression vector; made in house; host or cells: E. coli
T1 sequence (Q03181 1-441): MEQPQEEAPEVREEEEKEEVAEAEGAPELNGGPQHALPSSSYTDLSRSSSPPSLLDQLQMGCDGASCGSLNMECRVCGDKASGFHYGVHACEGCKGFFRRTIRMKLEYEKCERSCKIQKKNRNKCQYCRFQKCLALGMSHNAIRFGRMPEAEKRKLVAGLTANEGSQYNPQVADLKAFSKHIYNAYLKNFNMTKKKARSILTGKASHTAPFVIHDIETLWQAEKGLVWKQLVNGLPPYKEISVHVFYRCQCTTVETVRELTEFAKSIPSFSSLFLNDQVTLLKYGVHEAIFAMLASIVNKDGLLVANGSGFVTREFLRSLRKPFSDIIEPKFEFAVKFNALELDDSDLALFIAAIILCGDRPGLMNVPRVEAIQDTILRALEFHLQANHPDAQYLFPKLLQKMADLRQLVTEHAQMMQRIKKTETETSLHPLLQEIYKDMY
Excerpt: As an approach to identifying human PPAR agonists, a Scintillation Proximity Assay was used to characterize PPAR-γ, PPAR-δ, and PPAR-α ligands.
Human PPARγ2, human PPARδ and human PPARα were expressed as GST-fusion proteins in E. coli. The full length human cDNA for PPARγ 2 was subcloned into the pGEX-2 T expression vector (Amersham Pharmacia Biotech, Inc.). The full length human cDNAs for PPARδ and PPARα were subcloned into the pGEX-KT expression vector (Amersham Pharmacia Biotech, Inc.). E. coli containing the respective plasmids were propagated, induced, and harvested by centrifugation. The resuspended pellet was broken in a French press and debris removed by centrifugation. Recombinant human PPAR receptors were purified by affinity chromatography on glutathione sepharose. After application to the column, and one wash, receptor was eluted with glutathione. Glycerol (10%) was added to stabilize the receptor and aliquots were stored at −80° C.
After incubation for ˜16 h at 15° C. with shaking, the assay plates were counted in a Packard Topcount with quench correction.

[4] = Compound 1 30 mg/kg/day, indomethacin 2 mg/kg/day p.o. q.d.
[5] = injected paw, Compound 1 30 mg/kg/day, indomethacin 2 mg/kg/day p.o. q.d.
[6] = day 21, 30 mg/kg q.d. prophylactic

SMILES	Secondary Foot Volume % Inhibition Compared to Vehicle Day 21-0 [1, 4]	Change in Secondary Foot Volume Day 21-0 [1, 4]	Change in Secondary Foot Volume Day 14-0 [1]	Secondary Foot Volume % Inhibition Compared to Vehicle Day 14-0 [1]	radiographic total scores of contralateral paws compared with vehicle ([1]; day 21)	Change in Primary Foot Volume Day 21-0 [1, 5]	Change in Primary Foot Volume Day 4-0 ([1]; injected paw)	Primary Foot Volume % Inhibition Compared to Vehicle Day 4-0 ([1]; injected paw)	Primary Foot Volume % Inhibition Compared to Vehicle Day 14-0 ([1]; injected paw)	Change in Primary Foot Volume Day 14-0 ([1]; injected paw)	radiographic total scores on day 21, Primary (injected) paw [1, 4]	radiographic total scores on day 21, Secondary (contralateral) Paw [1, 4]	change in body weight Day 21-0 ([1]; Compound 1 30 mg/kg/day)	change in body weight Day 14-0 [1]	body weight gain compared with vehicle-treated animals [1]	degree of thymic involution compared with vehicle ([1]; rat, in vivo)	Spleen [1]	Thymus (mg) [1]	prevention of swelling of primary or secondary paws [1]	Thymus [1]	other results
COc1ccc2c(c1)c(CC(=O)O)c(C)n2C(=O)c1ccc(Cl)cc1 [Indomethacin, indomethacin, reference compound]	79.2%	201.0 µL	275 ± 138^++ μL	62.0%	significantly less	499 ± 135^++ μL	798 ± 164^++ μL	59.2%	65.7%	799 ± 159*^++ μL	4.3 ± 1.3^++	3.3 ± 1.3**^++	11.6 ± 8.0**^++ grams	8.6 ± 7.7**^++ grams	gained more weight than did vehicle-treated animals	less severe	738.0 ± 124.0 mg	426.0 ± 69.0^++ mg			radiographic total scores of primary paws compared with vehicle ([1]; day 21): significantly less; Primary Foot Volume % Inhibition Compared to Vehicle Day 21-0 [1, 5]: 79.2%; Liver ([1]; rat, in vivo): 866.0 ± 86.0 mg
CC(C)OC(=O)C(C)(C)Oc1ccc(C(=O)c2ccc(Cl)cc2)cc1 [Compound 5, Fenofibrate, reference compound]			824 ± 186 µL				1421 ± 212^+ μL			1945 ± 415 µL				−7.6 ± 5.3 grams			644.4 ± 159.2 mg		failed to prevent swelling of either the primary or secondary paws	155.3 ± 27.8 mg	
CN(CCOc1ccc(CC2SC(=O)NC2=O)cc1)c1ccccn1 (stereo not drawn) [Compound 6, Rosiglitazone, reference compound]														0.4 ± 6.4**^++ grams			634.5 ± 91.4 mg		failed to prevent swelling of either the primary or secondary paws	187.8 ± 50.4 mg	PPAR Activity [2]: Gamma Agonist
Cc1cccc(Nc2cc(Cl)nc(SCC(=O)O)n2)c1C [Compound 4, WY-14643, reference compound]			704 ± 421 µL	22.1%			2133 ± 266 µL	0%		2585 ± 733 µL				−15.2 ± 6.8 grams			665.1 ± 69.8 mg		failed to prevent swelling of either the primary or secondary paws	146.8 ± 33.4 mg	PPAR Activity [2]: Alpha Agonist
Cc1cc(SCc2sc(-c3ccc(C(F)(F)F)cc3)nc2C)ccc1OCC(=O)O.[Na+] [Compound 1]	77.8%	246.0 µL	38 ± 161^++ μL	92.4%	significantly less	2612 ± 909 µL	1510 ± 523^+ μL	23.1%	30.0%	1530 ± 659**^++ μL	13.0 ± 7.2	1.8 ± 3.3^++	2.9 ± 7.4**^++ grams	1.9 ± 6.6**^++ grams	gained more weight than did vehicle-treated animals	less severe	601.0 ± 52.8 mg	275.0 ± 50.4**^++ mg			swelling of the contralateral (secondary) paw [1, 6]: inhibited the day 21 swelling of the contralateral (secondary) paw; swelling of the primary (injected) paw [1, 6]: did not affect the swelling of the primary (injected) paw; Liver (mg) ([1]; rat, in vivo): 1209.0 ± 129.0**^++ mg; liver weight compared with vehicle ([1]; rat, in vivo): significantly heavier
CCCc1c(OCCCSc2ccc(CC(=O)O)cc2Cl)ccc2c(C(F)(F)F)noc12 [Compound B, 3-chloro-4-(3-(7-propyl-3-trifluoromethyl-6-benz-[4,5]-isoxazoloxy)propylthio)phenylacetic acid, reference compound]																					Kd [3]: ~1 nM
